Here are results for 4 compounds from patent US20050180944A1, “In situ remediation of waste in farm animal bedding substrates” (priority 2004, published 2005).

The subject of assay [1] is pig waste. Briefly: BOD and TSS of pig waste samples treated with fatty acids and combinations (test duration not given). The following applies: treated pig waste sample. Details: BOD reduction / TSS reduction: concentration or dose not given beside the values. The method, then:
A test was performed to determine the relative performance of various additives on the bioremediation or degradation of wastes suspended in water. Measurements of the “biological oxygen demand” (BOD) and “total suspended solids” (TSS) were taken as representative of the progress of the microbial growth and effectiveness of the degradation brought about by the microbes.
Approximately five pounds of pig waste was collected from a feedlot and diluted in five gallons of deionized water. The mixture was allowed to sit for 24 hours to insure that the waste formed a uniform mixture. Five hundred milliliters (500 ml) of the aqueous waste mixture was added to each of 13 two-liter glass bottles that were closed with Teflon lined caps. Ammonium hydroxide was added to each container for a final concentration of 2000 ppm.
The samples were diluted with water 2:1 and filtered to remove large particulate matter. Various fatty acids and combinations of fatty acids were added to each bottle and the bottles were placed in a tumbler at 25 degrees Celsius. Seven of the bottles were used in a seven-day test and six of the bottles were used in a twelve-day test. Standard EPA test methods were used for all test measurements.
BOD (biological oxygen demand) and TSS (total suspended solids) were measured on each sample.

Assay [2] has as its system pig waste. Put plainly: Seven-day test: bioremediation/degradation of pig waste suspended in water with fatty acid additives. The following applies: 0.1 g fatty acid (0.5 g coated nutrient) per bottle of aqueous pig waste mixture, 2000 ppm ammonium hydroxide, 25 degrees Celsius. The procedure: A test was performed to determine the relative performance of various additives on the bioremediation or degradation of wastes suspended in water. Measurements of the “biological oxygen demand” (BOD) and “total suspended solids” (TSS) were taken as representative of the progress of the microbial growth and effectiveness of the degradation brought about by the microbes. Approximately five pounds of pig waste was collected from a feedlot and diluted in five gallons of deionized water. The mixture was allowed to sit for 24 hours to insure that the waste formed a uniform mixture. Five hundred milliliters (500 ml) of the aqueous waste mixture was added to each of 13 two-liter glass bottles that were closed with Teflon lined caps. Ammonium hydroxide was added to each container for a final concentration of 2000 ppm. The samples were diluted with water 2:1 and filtered to remove large particulate matter. Various fatty acids and combinations of fatty acids were added to each bottle and the bottles were placed in a tumbler at 25 degrees Celsius. Seven of the bottles were used in a seven-day test and six of the bottles were used in a twelve-day test. Standard EPA test methods were used for all test measurements.

Turning to `CCCCCCCCCCCCCCCCCC(=O)O` [Strearic, stearic acid], in the assay on pig waste [1], the BOD levels is listed as 6660 ppm, the BOD reduction stood at 9.5%, the TSS levels was determined as 455 ppm and the TSS reduction worked out at 10.0%. In the assay with pig waste [2], the “TSS (total suspended solids)” value was 16,080 ppm.
In the same order, the values of `CCCCC/C=C\C/C=C\CCCCCCCC(=O)O` [Linoleic, linoleic acid] are 6102 ppm, 12.2%, 439 ppm, 13.3% and 15,780 ppm.
Turning to `CCCCCCCCCCCC(=O)O` [Lauric], the “TSS (total suspended solids)” value in the assay with pig waste [2] is 16,040 ppm.
`CCCCCCCC/C=C\CCCCCCCC(=O)O` [Oleic, oleic acid]: in the assay with pig waste [1], the BOD levels was determined as 6050 ppm, the BOD reduction came out at 13.0%, the TSS levels was 407 ppm and the TSS reduction is listed as 19.6%. Further, the “TSS (total suspended solids)” value in the assay with pig waste [2] is 15,600 ppm.
